Test results published in US20240059693A1, “FUSED BICYCLIC PYRAZOLE DERIVATIVES AND METHODS OF USE THEREOF FOR THE TREATMENT OF HERPESVIRUSES” (Merck Sharp & Dohme LLC, priority 2020, published 2024).
pEC50, pIC50: −log10 of the molar value. Like-named read-outs stand apart in the source and are kept apart here.

What was measured:
[1] = molecular target: T1, Human cytomegalovirus DNA polymerase (Human cytomegalovirus, UniProt P08546); assay: HCMV polymerase assay (AlphaLISA); assay type: biochemical; details: HCMV DNA polymerase 0.2 nM, 60 minutes at 37° C.; read-out: CMV (IC50)
T1 construct: made in house; host or cells: SF21 insect cells (baculovirus vector)
How it was run: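 Baculovirus/SF21-expressed polymerase (HCMV 0.2 nM; VZV 0.4 nM) pre-incubated 30 min at room temperature with compound in HEPES pH 7.5 buffer, then 60 min at 37 °C with 1.6 nM DIG-primer/template, sub-nM to 24 nM dNTPs and 0.8 nM biotin-dUTP. AlphaLISA detection; IC50 from 4-parameter fit.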

[2] = molecular target: T2, varicella zoster virus DNA polymerase (Varicella-zoster virus, UniProt P09252); assay: VZV polymerase assay (AlphaLISA); assay type: biochemical; details: VZV DNA polymerase 0.4 nM, 60 minutes at 37° C.
T2 construct: made in house; host or cells: SF21 insect cells (baculovirus vector)
Description: Human cytomegalovirus and varicella zoster virus DNA polymerases were expressed via baculovirus vector in SF21 cells and purified. Heterodimeric nucleic acid substrate used in the herpesvirus polymerase reactions was generated by annealing a 59-mer template to a 17-mer digoxigenin-labeled primer. Polymerase (HCMV final concentration of 0.2 nM; VZV final concentration of 0.4 nM) was combined with an inhibitor compound or DMSO in assay buffer (10 mM HEPES, pH 7.5, 25 mM KCl, 25 mM NaCl, 5 mM MgCl2, 5% glycerol, 0.67 mg/ml bovine serum albuminutes, and 1 mM tris(2-carboxyethyl)phosphine), and this mixture was pre-incubated for 30 minutes at room temperature in 384-well microtiter plates. The polymerization reaction was initiated by the addition of template/primer substrate (final concentration: 1.6 nM), and dNTPs (final concentration: 24 nM dCTP, 24 nMdGTP, 16 nM dATP, 16 nM dTTP, and 0.8 nM biotin-dUTP). After 60 minutes incubation at 37° C., reactions were terminated with quench buffer (25 mM HEPES pH 7.5, 100 mM NaCl, 0.25% Tween-20, 12 mM EDTA, and 1 mg/ml bovine serum albumin). Incorporation of biotinylated UTP was detected with 2.5-ug/ml anti-DIG AlphaLISA acceptor beads and 5-10 ug/ml streptavidin AlphaLISA donor beads (Perkin Elmer). Compound effects were normalized to the window defined by the controls (DMSO only and pre-quenched wells) and were fit using a 4-parameter algorithm to report an IC50.

VZV [3] = assay: Viral qPCR assay, VZV in MeWo cells; assay type: cell-based, varicella zoster virus; details: read-out: VZV MEWO Cell (IC50)
Description: (§1) MRCS cells, Vero cells, and MeWo cells were obtained from ATCC and were maintained at 37° C./5% CO2/90% relative humidity in Minimal Essential Medium with 10% fetal bovine serum, […] L-glutamine, 100 units/ml penicillin and 100 ug/ml streptomycin. Assay plates were prepared by dispensing compounds dissolved in DMSO into wells of 384 well collagen-coated plates using an ECHO acoustic dispenser. Each compound was tested in a 10-point, serial 3-fold dilution. Controls included uninfected cells and infected cells treated only with DMSO. Assays were initiated by mixing selected cells, in suspension, with virus, and dispensing 50 μl/well infected cells to pre-plated compounds. Plates were incubated at 37° C./5% CO2/90% relative humidity for ˜72 hrs to permit genomic replication, and infected cells were lysed by the addition of an equal volume of lysis buffer (10 mM Tris-HCl, pH8, 50 mM KCl, 2 mM MgCl2, 0.45% NP-40, 0.45% Tween-20, and 100 μg/ml proteinase K). An aliquot of the lysate was transferred to a 384-well PCR plate and incubated at 56° C. for 1 hour and then at 95° C. for 10 min. Levels of a viral gene and of the cellular control, PPIA (Thermo Fisher Assay ID=Hs04194521_s1), were measured in separate 10 μL qPCR assays using TaqMan® Gene Expression Master Mix (Applied Biosystems), and an 7900HT Fast Real-Time PCR System with 384-Well Block Module. 7-point, serial 10-fold dilutions of a plasmid standard were run on each plate to generate a standard curve, and genome copies numbers were calculated by plotting experimental Ct onto linear regression of the standard curve. Viral genome copy numbers were normalized by cellular control copy number, and compound effects were normalized to the window defined by the controls. Calculated % effects were fit using a 4-parameter algorithm, and EC50 was reported.
as §1, with “gene” for “gene and of the cellular control, PPIA (Thermo Fisher Assay ID=Hs04194521_s1),”, “in” for “in separate”, “Compound effects on viral” for “Viral”, “number” for “numbers were normalized by cellular control copy number, and compound effects”
(§2) VZV: Strain Street was maintained as an infected cell stock in MRC-5 cells. It was assayed in MeWo or MRCS cells and was used at 0.04-0.1 pfu/cell. The assays were performed in growth medium. Primer-probe set was Thermo Fisher Assay ID=AIPAEXQ. HSV-1: Strain F Street was assayed in Vero or MRCS cells and was used at 0.0005-0.004 pfu/cell in growth medium. Primer-probe set was Thermo Fisher Assay ID=AIBJZIB

HSV-1 Strain F [4] = assay: Viral qPCR assay, HSV-1 in Vero cells; assay type: cell-based, Herpes Simplex Virus type 1; details: read-out: HSV1 VERO Cell (EC50)
Description: as §1
as §1, with “gene” for “gene and of the cellular control, PPIA (Thermo Fisher Assay ID=Hs04194521_s1),”, “in” for “in separate”, “Compound effects on viral” for “Viral”, “number” for “numbers were normalized by cellular control copy number, and compound effects”
as §2

HSV2 [5] = assay: Viral qPCR assay, HSV2 in Vero cells; assay type: cell-based, Herpes Simplex Virus type 2; details: read-out: HSV2 VERO Cell (EC50)
Description: as §1
as §1, with “gene” for “gene and of the cellular control, PPIA (Thermo Fisher Assay ID=Hs04194521_s1),”, “in” for “in separate”, “Compound effects on viral” for “Viral”, “number” for “numbers were normalized by cellular control copy number, and compound effects”

HCMV Strain AD169 = assay: Viral qPCR assay, HCMV in MRC-5 cells; assay type: cell-based, Human cytomegalovirus; details: read-out: CMV MRC5 Cell (EC50)
How it was run: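 Viral genome copies, quantified by TaqMan qPCR with a plasmid standard curve after ~72 h infection of MRC-5 cells with AD169 at 0.05-0.1 pfu/cell, served as readout; PPIA normalisation used in one format. Compounds run as 10-point 3-fold series, in standard or 50% FBS media; EC50 by 4-parameter fit.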

VZV [6] = assay: Viral qPCR assay, VZV in MRC5 cells; assay type: cell-based, varicella zoster virus; details: read-out: VZV MRC5 Cell (IC50)
How it was run: (§3)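 EC50 from a 4-parameter fit of viral genome copies, quantified by TaqMan qPCR on proteinase K lysates against a plasmid standard, with or without PPIA normalization. Infected cells (VZV 0.04-0.1 pfu/cell in MeWo/MRC5; HSV-1 0.0005-0.004 pfu/cell in Vero/MRC5) were exposed to 10-point 3-fold dilutions for ~72 h at 37 °C.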

HSV-1 Strain F [7] = assay: Viral qPCR assay, HSV-1 in MRC5 cells; assay type: cell-based, Herpes Simplex Virus type 1; details: read-out: HSV1 MRC5 Cell (EC50)
How it was run: as §3

HSV2 [8] = assay: Viral qPCR assay, HSV2 in MRC5 cells; assay type: cell-based, Herpes Simplex Virus type 2; details: read-out: HSV2 MRC5 Cell (EC50)
How it was run: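 EC50 from a 4-parameter fit of % effect on HSV2 genome copies, quantified by qPCR from a plasmid standard curve and normalized to infected DMSO and uninfected controls, with PPIA correction in one version. Virus-mixed Vero or MRC5 cells met 10-point 3-fold serial compound dilutions for ~72 h at 37 °C.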

[9] = Human alphaherpesvirus 3, ~72 hrs
[10] = Human alphaherpesvirus 1, Vero, 72 h
[11] = Human alphaherpesvirus 2, Vero, 72 h
[12] = Human betaherpesvirus 5, AD169, MRC5, 72 h
[13] = Human alphaherpesvirus 3, MRC5, 72 h
[14] = Human alphaherpesvirus 1, MRC5, 72 h
[15] = Human alphaherpesvirus 2, MRC5, 72 h

T1 sequence (P08546 whole entry): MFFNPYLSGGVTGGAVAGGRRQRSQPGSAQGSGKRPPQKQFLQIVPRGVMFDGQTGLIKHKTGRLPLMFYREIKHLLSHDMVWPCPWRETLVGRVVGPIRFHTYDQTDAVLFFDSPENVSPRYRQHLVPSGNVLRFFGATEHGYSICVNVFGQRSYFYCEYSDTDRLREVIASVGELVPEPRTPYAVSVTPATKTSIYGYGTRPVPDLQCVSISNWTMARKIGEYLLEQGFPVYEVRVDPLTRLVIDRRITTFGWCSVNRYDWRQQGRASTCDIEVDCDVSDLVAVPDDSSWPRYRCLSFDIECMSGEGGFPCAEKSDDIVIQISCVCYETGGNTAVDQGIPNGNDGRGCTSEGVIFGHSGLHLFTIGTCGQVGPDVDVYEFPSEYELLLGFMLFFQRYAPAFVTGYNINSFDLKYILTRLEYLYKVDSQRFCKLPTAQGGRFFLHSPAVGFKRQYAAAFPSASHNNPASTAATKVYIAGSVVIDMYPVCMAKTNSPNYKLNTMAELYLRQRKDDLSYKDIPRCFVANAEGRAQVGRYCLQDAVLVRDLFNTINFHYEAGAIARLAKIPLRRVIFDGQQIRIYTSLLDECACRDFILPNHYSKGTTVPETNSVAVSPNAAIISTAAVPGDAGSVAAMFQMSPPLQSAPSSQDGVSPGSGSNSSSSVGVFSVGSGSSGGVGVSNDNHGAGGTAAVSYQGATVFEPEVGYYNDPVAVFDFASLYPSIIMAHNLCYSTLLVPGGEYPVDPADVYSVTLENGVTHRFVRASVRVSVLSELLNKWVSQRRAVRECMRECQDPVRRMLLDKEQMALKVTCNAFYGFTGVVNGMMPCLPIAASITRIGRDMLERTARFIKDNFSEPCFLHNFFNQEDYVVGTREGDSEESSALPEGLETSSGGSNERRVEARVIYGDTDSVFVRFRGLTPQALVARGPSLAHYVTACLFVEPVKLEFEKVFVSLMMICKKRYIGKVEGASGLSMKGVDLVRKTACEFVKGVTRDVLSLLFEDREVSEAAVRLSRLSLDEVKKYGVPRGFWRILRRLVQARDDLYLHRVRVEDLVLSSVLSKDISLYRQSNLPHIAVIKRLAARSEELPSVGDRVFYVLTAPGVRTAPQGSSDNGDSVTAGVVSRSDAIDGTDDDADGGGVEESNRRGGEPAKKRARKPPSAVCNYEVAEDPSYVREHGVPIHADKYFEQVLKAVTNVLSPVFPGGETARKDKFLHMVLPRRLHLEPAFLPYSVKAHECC
T2 sequence (P09252 whole entry): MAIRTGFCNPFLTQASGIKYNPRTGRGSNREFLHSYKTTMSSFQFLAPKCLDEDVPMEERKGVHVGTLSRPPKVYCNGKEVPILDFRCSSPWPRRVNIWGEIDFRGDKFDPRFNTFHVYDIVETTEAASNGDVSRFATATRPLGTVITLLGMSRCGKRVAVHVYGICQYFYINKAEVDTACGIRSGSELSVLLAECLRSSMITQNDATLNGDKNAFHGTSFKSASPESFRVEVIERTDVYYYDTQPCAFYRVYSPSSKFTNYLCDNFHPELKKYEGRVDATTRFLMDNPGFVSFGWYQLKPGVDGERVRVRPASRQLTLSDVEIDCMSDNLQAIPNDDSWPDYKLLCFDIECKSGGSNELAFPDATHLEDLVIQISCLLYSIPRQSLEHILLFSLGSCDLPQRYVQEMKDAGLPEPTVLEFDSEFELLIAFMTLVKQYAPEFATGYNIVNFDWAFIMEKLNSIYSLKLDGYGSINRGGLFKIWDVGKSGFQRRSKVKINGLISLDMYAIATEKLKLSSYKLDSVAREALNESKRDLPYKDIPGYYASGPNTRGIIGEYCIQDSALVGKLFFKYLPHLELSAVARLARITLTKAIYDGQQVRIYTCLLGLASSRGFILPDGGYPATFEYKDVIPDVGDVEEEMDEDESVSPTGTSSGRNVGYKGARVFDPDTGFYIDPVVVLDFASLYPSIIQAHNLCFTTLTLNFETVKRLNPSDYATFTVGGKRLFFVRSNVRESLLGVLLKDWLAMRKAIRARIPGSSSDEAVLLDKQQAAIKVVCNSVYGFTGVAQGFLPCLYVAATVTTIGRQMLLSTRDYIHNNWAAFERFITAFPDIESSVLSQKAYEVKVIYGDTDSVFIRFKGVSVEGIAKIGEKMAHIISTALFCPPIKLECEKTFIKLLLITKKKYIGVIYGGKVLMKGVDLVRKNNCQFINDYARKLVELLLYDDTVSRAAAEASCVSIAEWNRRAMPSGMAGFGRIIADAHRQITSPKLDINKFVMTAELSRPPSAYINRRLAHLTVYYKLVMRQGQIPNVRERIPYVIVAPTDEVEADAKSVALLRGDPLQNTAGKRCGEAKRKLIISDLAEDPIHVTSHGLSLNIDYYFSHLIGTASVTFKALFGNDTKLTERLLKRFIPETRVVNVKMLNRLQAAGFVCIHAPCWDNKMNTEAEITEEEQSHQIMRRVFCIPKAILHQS

SMILES | pIC50 [1] | pIC50 [2] | pIC50 (VZV [3]; [9]) | pEC50 (HSV-1 Strain F [4]; [10]) | pEC50 (HSV2 [5]; [11]) | pEC50 (HCMV Strain AD169; [12]) | pIC50 (VZV [6]; [13]) | pEC50 (HSV-1 Strain F [7]; [14]) | pEC50 (HSV2 [8]; [15]) | pIC50 (VZV [6]; ~72 hrs) | pEC50 (HSV-1 Strain F [4]; ~72 hrs) | pEC50 (HSV2 [5]; ~72 hrs) | pEC50 (HSV-1 Strain F [7]; ~72 hrs) | pEC50 (HSV2 [8]; ~72 hrs) | pEC50 (HCMV Strain AD169; MRC5 cells, ~72 hrs) | pIC50 (VZV [3]; ~72 hrs)
CC(C)(O)Cn1nc(C(=O)NCc2ccc(Cl)cc2)c2c1CN(C[C@H]1CCC(=O)N1)C2 [Compound 58] | 6.92 | 7.72 | 6.22 | 6.27 | 6.15 | 5.91 | – | – | – | – | – | – | – | – | – | –
CC(C)C(=O)NCCn1nc(C(=O)NCc2ccc(Cl)cc2)c2c1CN(C[C@H]1CCC(=O)N1)C2 [Compound 25] | 7.95 | 7.94 | 6.32 | 4.00 | 4.00 | 6.01 | 4.54 | 4.76 | 4.79 | – | – | – | – | – | – | –
Cn1nc(C(=O)NCc2ccc(Cl)cc2)c2c1CN(C[C@@H]1CC(F)C(=O)N1)C2 (stereo partly drawn) [Compound 80] | 6.77 | 6.99 | – | – | – | – | – | – | – | 5.41 | 5.71 | 5.64 | 5.40 | 5.55 | 5.56 | –
CC(C)CN1CC(n2nc(C(=O)NCc3ccc(Cl)cc3)c3c2CC(C[C@H]2CCC(=O)N2)C3)C1 (stereo partly drawn) [Compound 135] | 7.05 | 7.58 | – | 5.82 | 5.70 | 6.11 | 6.20 | 6.13 | 6.23 | – | – | – | – | – | – | –
O=C1CC[C@H](CN2Cc3c(C(=O)NCc4ccc(Cl)cc4)nn(CCC4CCOC4)c3C2)N1 (stereo partly drawn) [Compound 38] | 7.46 | 7.81 | 6.30 | 5.59 | 5.23 | 5.91 | – | – | – | – | – | – | – | – | – | –
O=C1CC[C@H](CC2Cc3c(C(=O)NCc4ccc(Cl)cc4)nn(CCN4CCOCC4)c3C2)N1 (stereo partly drawn) [Compound 133] | 7.07 | 7.71 | – | 5.79 | 5.97 | 6.09 | 5.92 | 5.92 | 6.25 | – | – | – | – | – | – | –
CN(CCn1nc(C(=O)NCc2ccc(Cl)cc2)c2c1CN(C[C@H]1CCC(=O)N1)C2)C(=O)C1CCC1 [Compound 3] | 8.06 | 8.46 | 6.47 | 4.48 | 4.24 | 5.90 | – | – | – | – | – | – | – | – | – | –
[2H]C([2H])([2H])n1nc(C(=O)NCc2ccc(Cl)cc2)c2c1CN(C[C@H]1CCC(=O)N1)C2 [Compound 59] | 7.15 | 7.31 | – | 5.86 | 5.45 | 6.15 | 5.28 | 5.15 | 5.50 | – | – | – | – | – | – | –
Cn1nc(C(=O)NCc2ccc(Cl)cc2)c2c1CN(C[C@H]1CCC(=O)N1)C2 [Compound 32] | 7.85 | 8.25 | – | 6.42 | 6.78 | 6.38 | 6.38 | 6.19 | 6.30 | – | – | – | – | – | – | –
O=C1CC[C@@H](CN2Cc3c(C(=O)NCc4ccc(Cl)cc4)nn(C4CCC(F)(F)C4)c3C2)N1 (single isomer, unassigned) [Compound 55] | 7.03 | 7.57 | – | – | – | – | – | – | – | – | 5.25 | 4.88 | – | – | 5.57 | 6.32
O=C1CC[C@H](CN2Cc3c(C(=O)NCc4ccc(Cl)cc4)nn(CC4CCCO4)c3C2)N1 (stereo partly drawn) [Compound 29] | 6.73 | 7.24 | 6.59 | 5.27 | 5.05 | 5.43 | – | – | – | – | – | – | – | – | – | –
CC1(Cn2nc(C(=O)NCc3ccc(Cl)cc3)c3c2CN(C[C@H]2CCC(=O)N2)C3)COC1 [Compound 30] | 6.61 | 7.18 | 5.63 | 4.92 | 4.79 | 5.24 | – | – | – | – | – | – | – | – | – | –
CC(C)N1CC(n2nc(C(=O)NCc3ccc(Cl)cc3)c3c2CC(C[C@H]2CCC(=O)N2)C3)C1 (stereo partly drawn) [Compound 134] | 7.06 | 7.83 | – | – | – | – | – | – | – | 6.08 | 6.00 | 6.23 | 5.93 | 6.26 | 6.01 | –
